From patent publication US20160122320A1, “USEFUL COMBINATIONS OF MONOBACTAM ANTIBIOTICS WITH BETA-LACTAMASE INHIBITORS” (Basilea Pharmaceutica AG, priority 2005, published 2016)
Where a name gives a salt, the structure may show the parent alone. One block for each compound: values may come before it.

Key:
Test in all cases: MIC, NCCLS broth microdilution
Type in all cases: cell-based
[1] = test system: Acinetobacter sp. J2; settings: for MIC of antibiotic at fixed inhibitor concentration (4 mg/L): Acinetobacter sp. J2, MIC of antibiotic compound 1 with the labelled bridged monobactam of formula II and clavulanate, 4 mg/L each; for MIC of antibiotic / MIC of antibiotic at fixed inhibitor concentration of 4 mg/L: Acinetobacter baumannii J2; for MIC of antibiotic: antibiotic alone, no inhibitor
[2] = test system: Pseudomonas aeruginosa MK1184; settings: for MIC of antibiotic at fixed inhibitor concentration (4 mg/L): MIC of antibiotic compound 1 with the labelled bridged monobactam of formula II and clavulanate, 4 mg/L each; for MIC of antibiotic: antibiotic alone, no inhibitor
[3] = test system: Pseudomonas aeruginosa 1973E; settings: for MIC of antibiotic at fixed inhibitor concentration (4 mg/L): MIC of antibiotic compound 1 with the labelled bridged monobactam of formula II and clavulanate, 4 mg/L each; for MIC of antibiotic: antibiotic alone, no inhibitor
Description: Antimicrobial activity of the compounds and of their combinations was determined against a selection of organisms according to the standard procedures described by the National Committee for Clinical Laboratory Standards (National Committee for Clinical Laboratory. Standards (2000). Methods for Dilution Antimicrobial Susceptibility Tests for Bacteria That Grow Aerobically-Fifth Edition: Approved Standard M7-A5. NCCLS, Wayne, Pa., USA).
In all cases the final concentration of DMSO incubated with the bacteria is less than or equal to 1%. […] Plates were incubated overnight at an appropriate temperature (30° C. or 37° C.) and optical densities assessed by eye. The MIC value is defined as the lowest compound concentration completely inhibiting visible growth of the test organism. When combinations between compounds of formula I with compounds of formula II and are evaluated the compounds of formula I are tested in dilution series as described above while the compounds of formula II and III-XIII were present in all wells at a constant concentration of 4 μg/mL each.

[4] = test system: Enterobacter cloacae P99; settings: for MIC of antibiotic at fixed inhibitor concentration (4 mg/L): MIC of antibiotic compound 1 with the labelled bridged monobactam of formula II and clavulanate, 4 mg/L each; for MIC of antibiotic: antibiotic alone, no inhibitor
[5] = test system: Klebsiella pneumoniae CF104; settings: for MIC of antibiotic at fixed inhibitor concentration (4 mg/L): MIC of antibiotic compound 1 with the labelled bridged monobactam of formula II and clavulanate, 4 mg/L each; for MIC of antibiotic: antibiotic alone, no inhibitor
[6] = test system: Serratia marcescens S6; settings: for MIC of antibiotic at fixed inhibitor concentration (4 mg/L): MIC of antibiotic compound 1 with the labelled bridged monobactam of formula II and clavulanate, 4 mg/L each; for MIC of antibiotic: antibiotic alone, no inhibitor
[7] = test system: Stenotrophomonas malthophilia 1AC736; settings: for MIC of antibiotic at fixed inhibitor concentration (4 mg/L): Stenotrophomonas malthophilia 1AC736, MIC of antibiotic compound 1 with the labelled bridged monobactam of formula II and clavulanate, 4 mg/L each; for MIC of antibiotic / MIC of antibiotic at fixed inhibitor concentration of 4 mg/L: Stenotrophomonas maltophilia 1AC736; for MIC of antibiotic: antibiotic alone, no inhibitor

- MIC of antibiotic at fixed inhibitor concentration (4 mg/L) [1]: 4 µg/mL
- MIC of antibiotic at fixed inhibitor concentration (4 mg/L) [2]: 32 µg/mL
- MIC of antibiotic at fixed inhibitor concentration (4 mg/L) [3]: 8 µg/mL
- MIC of antibiotic at fixed inhibitor concentration (4 mg/L) [4]: 32 µg/mL
- MIC of antibiotic at fixed inhibitor concentration (4 mg/L) [5]: >32 µg/mL
- MIC of antibiotic at fixed inhibitor concentration (4 mg/L) [6]: 2 µg/mL
- MIC of antibiotic at fixed inhibitor concentration (4 mg/L) [7]: 0.125 µg/mL
Structure (SMILES): O=C(CSc1nnnn1-c1ccccc1)N1CC[C@@H]2[C@H]1C(=O)N2S(=O)(=O)[O-].[Na+] [Compound 201]

- MIC of antibiotic at fixed inhibitor concentration (4 mg/L) [1]: >32 µg/mL
- MIC of antibiotic at fixed inhibitor concentration (4 mg/L) [2]: >32 µg/mL
- MIC of antibiotic at fixed inhibitor concentration (4 mg/L) [3]: 4 µg/mL
- MIC of antibiotic at fixed inhibitor concentration (4 mg/L) [4]: 4 µg/mL
- MIC of antibiotic at fixed inhibitor concentration (4 mg/L) [5]: 1 µg/mL
- MIC of antibiotic at fixed inhibitor concentration (4 mg/L) [6]: 0.25 µg/mL
- MIC of antibiotic at fixed inhibitor concentration (4 mg/L) [7]: 0.125 µg/mL
Structure (SMILES): NC(=O)CNC(=O)c1ccc[n+](CC(=O)N2CC[C@@H]3[C@H]2C(=O)N3S(=O)(=O)[O-])c1 [Compound 108, (1S,5R)-2-(2-{3-[N-(carbamoylmethyl)carbamoyl]pyridinium}acetyl)-7-oxo-2,6-diazabicyclo[3.2.0]heptane-6-sulfonate, inner salt]

- MIC of antibiotic [1]: >32 µg/mL
- MIC of antibiotic at fixed inhibitor concentration of 4 mg/L ([1]; with 102 and clavulanate): >32 µg/mL
- MIC of antibiotic at fixed inhibitor concentration of 4 mg/L ([1]; with 324 and clavulanate): >32 µg/mL
- MIC of antibiotic [2]: 4 µg/mL
- MIC of antibiotic at fixed inhibitor concentration of 4 mg/L ([2]; with 102 and clavulanate): 2 µg/mL
- MIC of antibiotic at fixed inhibitor concentration of 4 mg/L ([2]; with 324 and clavulanate): 4 µg/mL
- MIC of antibiotic [3]: 8 µg/mL
- MIC of antibiotic at fixed inhibitor concentration of 4 mg/L ([3]; with 102 and clavulanate): 4 µg/mL
- MIC of antibiotic at fixed inhibitor concentration of 4 mg/L ([3]; with 324 and clavulanate): 8 µg/mL
- MIC of antibiotic [4]: >32 µg/mL
- MIC of antibiotic at fixed inhibitor concentration of 4 mg/L ([4]; with 102 and clavulanate): 16 µg/mL
- MIC of antibiotic at fixed inhibitor concentration of 4 mg/L ([4]; with 324 and clavulanate): 32 µg/mL
- MIC of antibiotic [5]: >32 µg/mL
- MIC of antibiotic at fixed inhibitor concentration of 4 mg/L ([5]; with 102 and clavulanate): 4 µg/mL
- MIC of antibiotic at fixed inhibitor concentration of 4 mg/L ([5]; with 324 and clavulanate): 2 µg/mL
- MIC of antibiotic [6]: 2 µg/mL
- MIC of antibiotic at fixed inhibitor concentration of 4 mg/L ([6]; with 102 and clavulanate): 2 µg/mL
- MIC of antibiotic at fixed inhibitor concentration of 4 mg/L ([6]; with 324 and clavulanate): 2 µg/mL
- MIC of antibiotic [7]: 1 µg/mL
- MIC of antibiotic at fixed inhibitor concentration of 4 mg/L ([7]; with 102 and clavulanate): 1 µg/mL
- MIC of antibiotic at fixed inhibitor concentration of 4 mg/L ([7]; with 324 and clavulanate): 1 µg/mL
Structure (SMILES): NC(=O)OCC1C(NC(=O)C(=NOCc2cc(=O)c(O)cn2O)c2nc(N)sc2Cl)C(=O)N1OS(=O)(=O)O (stereo not shown) [Compound 47]

- MIC of antibiotic at fixed inhibitor concentration (4 mg/L) [1]: 4 µg/mL
- MIC of antibiotic at fixed inhibitor concentration (4 mg/L) [2]: >32 µg/mL
- MIC of antibiotic at fixed inhibitor concentration (4 mg/L) [3]: 4 µg/mL
- MIC of antibiotic at fixed inhibitor concentration (4 mg/L) [4]: 8 µg/mL
- MIC of antibiotic at fixed inhibitor concentration (4 mg/L) [5]: 0.5 µg/mL
- MIC of antibiotic at fixed inhibitor concentration (4 mg/L) [6]: 0.25 µg/mL
- MIC of antibiotic at fixed inhibitor concentration (4 mg/L) [7]: 0.125 µg/mL
Structure (SMILES): NC(=O)c1ccc(NC(=O)N2CC[C@@H]3[C@H]2C(=O)N3S(=O)(=O)[O-])cc1.[Na+] [Compound 311]

- MIC of antibiotic at fixed inhibitor concentration (4 mg/L) [1]: 4 µg/mL
- MIC of antibiotic at fixed inhibitor concentration (4 mg/L) [2]: 4 µg/mL
- MIC of antibiotic at fixed inhibitor concentration (4 mg/L) [3]: 2 µg/mL
- MIC of antibiotic at fixed inhibitor concentration (4 mg/L) [4]: 4 µg/mL
- MIC of antibiotic at fixed inhibitor concentration (4 mg/L) [5]: 1 µg/mL
- MIC of antibiotic at fixed inhibitor concentration (4 mg/L) [6]: 0.25 µg/mL
- MIC of antibiotic at fixed inhibitor concentration (4 mg/L) [7]: 0.125 µg/mL
Structure (SMILES): NC(=O)c1ccc[n+](CC(=O)N2CC[C@@H]3[C@H]2C(=O)N3S(=O)(=O)[O-])c1 [Compound 102, (1S,5R)-2-[2-β-carbamoylpyridinium)acetyl]-7-oxo-2,6-diazabicyclo[3.2.0]heptane-6-sulfonate, inner salt]

- MIC of antibiotic at fixed inhibitor concentration (4 mg/L) [1]: 16 µg/mL
- MIC of antibiotic at fixed inhibitor concentration (4 mg/L) [2]: >32 µg/mL
- MIC of antibiotic at fixed inhibitor concentration (4 mg/L) [3]: 4 µg/mL
- MIC of antibiotic at fixed inhibitor concentration (4 mg/L) [4]: >32 µg/mL
- MIC of antibiotic at fixed inhibitor concentration (4 mg/L) [5]: 1 µg/mL
- MIC of antibiotic at fixed inhibitor concentration (4 mg/L) [6]: 0.25 µg/mL
- MIC of antibiotic at fixed inhibitor concentration (4 mg/L) [7]: 0.125 µg/mL
Structure (SMILES): O=C(Nc1cccc(CO)c1)N1CC[C@@H]2[C@H]1C(=O)N2S(=O)(=O)[O-].[Na+] [Compound 321, Sodium(1S,5R)-2-{N-[3-(hydroxymethyl)phenyl]carbamoyl}-7-oxo-2,6-diazabicyclo[3.2.0]heptane-6-sulfonate]

- MIC of antibiotic [1]: 16 µg/mL
- MIC of antibiotic at fixed inhibitor concentration of 4 mg/L ([1]; with 102 and clavulanate): 16 µg/mL
- MIC of antibiotic at fixed inhibitor concentration of 4 mg/L ([1]; with 324 and clavulanate): 4 µg/mL
- MIC of antibiotic [2]: 4 µg/mL
- MIC of antibiotic at fixed inhibitor concentration of 4 mg/L ([2]; with 102 and clavulanate): 4 µg/mL
- MIC of antibiotic at fixed inhibitor concentration of 4 mg/L ([2]; with 324 and clavulanate): 4 µg/mL
- MIC of antibiotic [3]: 4 µg/mL
- MIC of antibiotic at fixed inhibitor concentration of 4 mg/L ([3]; with 102 and clavulanate): 4 µg/mL
- MIC of antibiotic at fixed inhibitor concentration of 4 mg/L ([3]; with 324 and clavulanate): 8 µg/mL
- MIC of antibiotic [4]: >32 µg/mL
- MIC of antibiotic at fixed inhibitor concentration of 4 mg/L ([4]; with 102 and clavulanate): 16 µg/mL
- MIC of antibiotic at fixed inhibitor concentration of 4 mg/L ([4]; with 324 and clavulanate): 16 µg/mL
- MIC of antibiotic [5]: >32 µg/mL
- MIC of antibiotic at fixed inhibitor concentration of 4 mg/L ([5]; with 102 and clavulanate): 0.5 µg/mL
- MIC of antibiotic at fixed inhibitor concentration of 4 mg/L ([5]; with 324 and clavulanate): 0.5 µg/mL
- MIC of antibiotic [6]: 1 µg/mL
- MIC of antibiotic at fixed inhibitor concentration of 4 mg/L ([6]; with 102 and clavulanate): 0.5 µg/mL
- MIC of antibiotic at fixed inhibitor concentration of 4 mg/L ([6]; with 324 and clavulanate): 0.5 µg/mL
- MIC of antibiotic [7]: 1 µg/mL
- MIC of antibiotic at fixed inhibitor concentration of 4 mg/L ([7]; with 102 and clavulanate): 2 µg/mL
- MIC of antibiotic at fixed inhibitor concentration of 4 mg/L ([7]; with 324 and clavulanate): 1 µg/mL
Structure (SMILES): NC(=O)OCC1C(NC(=O)C(=NOCc2cc(=O)c(O)cn2O)c2csc(N)n2)C(=O)N1OCC(=O)O (stereo not shown) [Compound 41]

- MIC of antibiotic at fixed inhibitor concentration (4 mg/L) [1]: >32 µg/mL
- MIC of antibiotic at fixed inhibitor concentration (4 mg/L) [2]: >32 µg/mL
- MIC of antibiotic at fixed inhibitor concentration (4 mg/L) [3]: 4 µg/mL
- MIC of antibiotic at fixed inhibitor concentration (4 mg/L) [4]: 32 µg/mL
- MIC of antibiotic at fixed inhibitor concentration (4 mg/L) [5]: 0.125 µg/mL
- MIC of antibiotic at fixed inhibitor concentration (4 mg/L) [6]: 0.25 µg/mL
- MIC of antibiotic at fixed inhibitor concentration (4 mg/L) [7]: 0.25 µg/mL
Structure (SMILES): CC(C)c1cc[n+](CC(=O)N2CC[C@@H]3[C@H]2C(=O)N3S(=O)(=O)[O-])cc1 [Compound 113, (1S,5R)-2-{2-[4-(isopropyl)pyridinium]acetyl}-7-oxo-2,6-diazabicyclo[3.2.0]heptane-6-sulfonate, inner salt]

- MIC of antibiotic at fixed inhibitor concentration (4 mg/L) [1]: 2 µg/mL
- MIC of antibiotic at fixed inhibitor concentration (4 mg/L) [2]: 16 µg/mL
- MIC of antibiotic at fixed inhibitor concentration (4 mg/L) [3]: 8 µg/mL
- MIC of antibiotic at fixed inhibitor concentration (4 mg/L) [4]: 32 µg/mL
- MIC of antibiotic at fixed inhibitor concentration (4 mg/L) [5]: >32 µg/mL
- MIC of antibiotic at fixed inhibitor concentration (4 mg/L) [6]: 0.125 µg/mL
- MIC of antibiotic at fixed inhibitor concentration (4 mg/L) [7]: 0.125 µg/mL
Structure (SMILES): NC(=O)c1c[n+](CC(=O)N2CC[C@@H]3[C@H]2C(=O)N3S(=O)(=O)[O-])ccc1N [Compound 126, (1S,5R)-2-[2-(4-amino-3-carbamoylpyridinium)acetyl]-7-oxo-2,6-diazabicyclo[3.2.0]heptane-6-sulfonate, inner salt]
